According to ChEMBL document CHEMBL5550154, “Novel biaryloxazolidinone derivatives with broad-spectrum antibacterial activity, favorable drug-like profiles and in vivo efficacy against linezolid-resistant Staphylococcusaureus” (Eur J Med Chem, 2024):
In brackets after ≈: the same amount, converted by molar mass.

How the values were obtained:
[1] = tested on: Staphylococcus aureus; experiment: Antibacterial activity against linezolid-resistant Staphylococcus aureus assessed as inhibition of bacterial growth incubated for 16 to 20 hrs by CLSI based broth liquid microdilution method; assay type: functional; conditions: time 16-20 hrs
[2] = tested on: Staphylococcus aureus; experiment: Antibacterial activity against methicillin-sensitive Staphylococcus aureus assessed as inhibition of bacterial growth incubated for 16 to 20 hrs by CLSI based broth liquid microdilution method; assay type: functional; conditions: time 16-20 hrs
[3] = tested on: Enterococcus faecalis; experiment: Antibacterial activity against linezolid-resistant Enterococcus faecalis assessed as inhibition of bacterial growth incubated for 16 to 20 hrs by CLSI based broth liquid microdilution method; assay type: functional; conditions: time 16-20 hrs
[4] = tested on: Staphylococcus aureus; experiment: Antibacterial activity against Staphylococcus aureus ATCC29213 assessed as inhibition of bacterial growth incubated for 16 to 20 hrs by CLSI based broth liquid microdilution method; assay type: functional; conditions: time 16-20 hrs
[5] = tested on: Staphylococcus aureus; experiment: Antibacterial activity against methicillin-resistant Staphylococcus aureus assessed as inhibition of bacterial growth incubated for 16 to 20 hrs by CLSI based broth liquid microdilution method; assay type: functional; conditions: time 16-20 hrs
[6] = Apparent volume of distribution in Sprague-Dawley rat at 1 mg/kg, iv measured upto 24 hrs by LC-MS analysis; assay type: ADME, organism-based; conditions: in vivo, read-out: Vz
[7] = Elimination half life in Sprague-Dawley rat at 10 mg/kg, IG measured upto 24 hrs by LC-MS analysis; assay type: ADME, organism-based; conditions: in vivo, po, read-out: beta t1/2 (converted)
[8] = Apparent permeability across apical to basolateral side in human Caco-2 cells; assay type: ADME, cell-based
[9] = Aqueous solubility of compound at pH 2 by LC-MS/MS analysis; assay type: physicochemical; conditions: buffer
[10] = Elimination half life in Sprague-Dawley rat at 1 mg/kg, iv measured upto 24 hrs by LC-MS analysis; assay type: ADME, organism-based; conditions: in vivo, read-out: beta t1/2 (converted)
[11] = Tmax in Sprague-Dawley rat at 10 mg/kg, IG measured upto 24 hrs by LC-MS analysis; assay type: ADME, organism-based; conditions: in vivo, po
[12] = AUC (0 to t) in Sprague-Dawley rat at 10 mg/kg, IG measured upto 24 hrs by LC-MS analysis; assay type: ADME, organism-based; conditions: in vivo, po
[13] = Bioavailability in Sprague-Dawley rat at 10 mg/kg, IG measured upto 24 hrs by LC-MS analysis; assay type: ADME, organism-based; conditions: in vivo, po
[14] = Solubility of compound at pH 7.4; assay type: physicochemical; conditions: buffer
[15] = AUC (0 to t) in Sprague-Dawley rat at 1 mg/kg, iv measured upto 24 hrs by LC-MS analysis; assay type: ADME, organism-based; conditions: in vivo
[16] = Aqueous solubility of compound at pH 7.4 by LC-MS/MS analysis; assay type: physicochemical; conditions: buffer
[17] = Cmax in Sprague-Dawley rat at 10 mg/kg, IG measured upto 24 hrs by LC-MS analysis; assay type: ADME, organism-based; conditions: in vivo, po
[18] = Solubility of compound at pH 2; assay type: physicochemical; conditions: buffer
[19] = Clearance in Sprague-Dawley rat at 1 mg/kg, iv measured upto 24 hrs by LC-MS analysis; assay type: ADME, organism-based; conditions: in vivo
[20] = Efflux ratio of apparent permeability across […] side in human Caco-2 cells; assay type: ADME, cell-based

SMILES	MIC [1]	MIC [2]	MIC [3]	MIC [4]	MIC [5]	further results
N=C(N)N/N=C/c1ccc(-c2ccc(N3C[C@H](CO)OC3=O)cc2F)cn1	1 µg/mL (≈ 2.69 µM)	0.5 µg/mL (≈ 1.34 µM)	2 µg/mL (≈ 5.37 µM)	1 µg/mL (≈ 2.69 µM)	1 µg/mL (≈ 2.69 µM)	
CS(=O)(=O)NC[C@H]1CN(c2ccc(-c3ccc(/C=N/N4CCCCC4)nc3)c(F)c2)C(=O)O1	> 16 µg/mL	0.125 µg/mL (≈ 0.263 µM)	4 µg/mL (≈ 8.41 µM)	0.06 µg/mL (≈ 0.126 µM)	0.125 µg/mL (≈ 0.263 µM)	
Cc1cccc(N/N=C/c2ccc(-c3ccc(N4C[C@H](CO)OC4=O)cc3F)cn2)n1	0.5 µg/mL (≈ 1.19 µM)	0.25 µg/mL (≈ 0.593 µM)	1 µg/mL (≈ 2.37 µM)	0.5 µg/mL (≈ 1.19 µM)	0.5 µg/mL (≈ 1.19 µM)	
CC(C)(C)C(=O)NC[C@H]1CN(c2ccc(-c3ccc(/C=N/N4CCCCC4)nc3)c(F)c2)C(=O)O1	> 16 µg/mL	4 µg/mL (≈ 8.31 µM)	> 16 µg/mL	4 µg/mL (≈ 8.31 µM)	4 µg/mL (≈ 8.31 µM)	
CN1CCN(/N=C/c2ccc(-c3ccc(N4C[C@H](CO)OC4=O)cc3F)cn2)CC1	0.125 µg/mL (≈ 0.302 µM)	0.125 µg/mL (≈ 0.302 µM)	0.5 µg/mL (≈ 1.21 µM)	0.125 µg/mL (≈ 0.302 µM)	0.125 µg/mL (≈ 0.302 µM)	
COC[C@H]1CN(c2ccc(-c3ccc(/C=N/N4CCCCC4)nc3)c(F)c2)C(=O)O1		> 16 µg/mL	> 16 µg/mL	> 16 µg/mL		
NC[C@H]1CN(c2ccc(-c3ccc(/C=N/N4CCCCC4)nc3)c(F)c2)C(=O)O1	32 µg/mL (≈ 80.5 µM)	8 µg/mL (≈ 20.1 µM)	32 µg/mL (≈ 80.5 µM)	8 µg/mL (≈ 20.1 µM)	16 µg/mL (≈ 40.3 µM)	
O=C1O[C@@H](CF)CN1c1ccc(-c2ccc(/C=N/N3CCCCC3)nc2)c(F)c1	0.5 µg/mL (≈ 1.25 µM)	0.25 µg/mL (≈ 0.624 µM)	> 16 µg/mL	0.25 µg/mL (≈ 0.624 µM)	0.5 µg/mL (≈ 1.25 µM)	
CC(=O)NC[C@H]1CN(c2ccc(-c3ccc(/C=N/N4CCS(=O)(=O)CC4)nc3)c(F)c2)C(=O)O1	0.125 µg/mL (≈ 0.255 µM)	0.125 µg/mL (≈ 0.255 µM)	0.25 µg/mL (≈ 0.511 µM)	0.125 µg/mL (≈ 0.255 µM)	0.125 µg/mL (≈ 0.255 µM)	Vd [6]: 0.58 L/kg; half-life [7]: 154 min; Papp A→B [8]: 0.27 ×10⁻⁶ cm/s; solubility [9]: 70.4 µM (≈ 34.5 µg/mL); half-life [10]: 44.4 min; Tmax [11]: 30 min; AUC(0-t) at 24 h [12]: 469 ng·h/mL; bioavailability [13]: 3.6%; solubility [14]: 2.38 µM (≈ 1.17 µg/mL); AUC(0-t) at 24 h [15]: 1290 ng·h/mL; solubility [16]: 38 µM (≈ 18.6 µg/mL); Cmax [17]: 140 ng/mL; solubility [18]: 70.4 µM (≈ 34.5 µg/mL); clearance [19]: 12.9 mL/min/kg; Ratio [20]: 64
O=C1O[C@@H](CO)CN1c1ccc(-c2ccc(/C=N/N3CCSCC3)nc2)c(F)c1	2 µg/mL (≈ 4.8 µM)	1 µg/mL (≈ 2.4 µM)	8 µg/mL (≈ 19.2 µM)	2 µg/mL (≈ 4.8 µM)	1 µg/mL (≈ 2.4 µM)	
NC(=S)N/N=C/c1ccc(-c2ccc(N3C[C@H](CO)OC3=O)cc2F)cn1	0.25 µg/mL (≈ 0.642 µM)	0.125 µg/mL (≈ 0.321 µM)	1 µg/mL (≈ 2.57 µM)	0.125 µg/mL (≈ 0.321 µM)	0.125 µg/mL (≈ 0.321 µM)	
CC(C)S(=O)(=O)NC[C@H]1CN(c2ccc(-c3ccc(/C=N/N4CCCCC4)nc3)c(F)c2)C(=O)O1	> 64 µg/mL	2 µg/mL (≈ 3.97 µM)	> 64 µg/mL	4 µg/mL (≈ 7.94 µM)	4 µg/mL (≈ 7.94 µM)	
O=C1O[C@@H](CO)CN1c1ccc(-c2ccc(/C=N/Nc3ncccn3)nc2)c(F)c1	1 µg/mL (≈ 2.45 µM)	0.5 µg/mL (≈ 1.22 µM)	4 µg/mL (≈ 9.79 µM)	1 µg/mL (≈ 2.45 µM)	1 µg/mL (≈ 2.45 µM)	
O=C1O[C@@H](CO)CN1c1ccc(-c2ccc(/C=N/NC3=NCCN3)nc2)c(F)c1	0.5 µg/mL (≈ 1.26 µM)	0.25 µg/mL (≈ 0.628 µM)	2 µg/mL (≈ 5.02 µM)	0.5 µg/mL (≈ 1.26 µM)	0.5 µg/mL (≈ 1.26 µM)	
O=C1O[C@@H](CNS(=O)(=O)C2CC2)CN1c1ccc(-c2ccc(/C=N/N3CCCCC3)nc2)c(F)c1	> 16 µg/mL	0.25 µg/mL (≈ 0.498 µM)	> 16 µg/mL	0.25 µg/mL (≈ 0.498 µM)	0.25 µg/mL (≈ 0.498 µM)	
O=C1O[C@@H](CO)CN1c1ccc(-c2ccc(/C=N/Nc3ccc(Cl)cn3)nc2)c(F)c1	0.5 µg/mL (≈ 1.13 µM)	0.5 µg/mL (≈ 1.13 µM)	8 µg/mL (≈ 18.1 µM)	0.5 µg/mL (≈ 1.13 µM)	0.5 µg/mL (≈ 1.13 µM)	
O=C1O[C@@H](CO)CN1c1ccc(-c2ccc(/C=N/Nc3ccc(Cl)cc3)nc2)c(F)c1	0.5 µg/mL (≈ 1.13 µM)	0.25 µg/mL (≈ 0.567 µM)	32 µg/mL (≈ 72.6 µM)	0.5 µg/mL (≈ 1.13 µM)	0.5 µg/mL (≈ 1.13 µM)	
Cc1cc(Br)cc(C(=O)N2CCN(/N=C/c3ccc(-c4ccc(N5C[C@H](CO)OC5=O)cc4F)cn3)CC2)c1	0.25 µg/mL (≈ 0.419 µM)	0.125 µg/mL (≈ 0.21 µM)	4 µg/mL (≈ 6.71 µM)	0.25 µg/mL (≈ 0.419 µM)	0.25 µg/mL (≈ 0.419 µM)	
CS(=O)(=O)N1CCN(/N=C/c2ccc(-c3ccc(N4C[C@H](CO)OC4=O)cc3F)cn2)CC1	0.125 µg/mL (≈ 0.262 µM)	0.125 µg/mL (≈ 0.262 µM)	1 µg/mL (≈ 2.09 µM)	0.25 µg/mL (≈ 0.524 µM)	0.25 µg/mL (≈ 0.524 µM)	
O=C1O[C@@H](CO)CN1c1ccc(-c2ccc(/C=N/Nc3ccncn3)nc2)c(F)c1	1 µg/mL (≈ 2.45 µM)	1 µg/mL (≈ 2.45 µM)	64 µg/mL (≈ 157 µM)	1 µg/mL (≈ 2.45 µM)	1 µg/mL (≈ 2.45 µM)	
CS(=O)(=O)OC[C@H]1CN(c2ccc(-c3ccc(/C=N/N4CCCCC4)nc3)c(F)c2)C(=O)O1	> 16 µg/mL	0.008 µg/mL (≈ 0.0168 µM)	1 µg/mL (≈ 2.1 µM)	0.015 µg/mL (≈ 0.0315 µM)	0.008 µg/mL (≈ 0.0168 µM)	
O=C1O[C@@H](CO)CN1c1ccc(-c2ccc(/C=N/Nc3ccc(Cl)nn3)nc2)c(F)c1	1 µg/mL (≈ 2.26 µM)	0.5 µg/mL (≈ 1.13 µM)	2 µg/mL (≈ 4.52 µM)	0.5 µg/mL (≈ 1.13 µM)	0.5 µg/mL (≈ 1.13 µM)	
CCS(=O)(=O)NC[C@H]1CN(c2ccc(-c3ccc(/C=N/N4CCCCC4)nc3)c(F)c2)C(=O)O1	> 16 µg/mL	1 µg/mL (≈ 2.04 µM)	8 µg/mL (≈ 16.3 µM)	1 µg/mL (≈ 2.04 µM)	1 µg/mL (≈ 2.04 µM)	
